In paper PMC9960778, “Polymer-Antimicrobial Peptide Constructs with Tailored Drug-Release Behavior” (Pharmaceutics, 2023):
Values after ≈ are worked out from the molar mass of the structure shown. Starred links: 1 amine or outer side, 2 acyl side, 3 side chain; linkers in the order of their positions; H or OH if unused. Non-standard residues stand in square brackets, D forms with d. Residues, ends and D or L forms follow the SMILES beside them. No end group written: not given here. *: point of attachment. X1 = N=c1ccc2c(-c3ccccc3C(=O)*)c3ccc(N)c(S(=O)(=O)O)c3oc-2c1S(=O)(=O)O; NMeGABA = CN(CCCC(=O)[*:2])[*:1]

Columns and labels:
[1] = system: Acinetobacter baumanii (CCM 2355); format: cell-based; conditions: A. baumanii (Gram-negative); Mueller-Hinton broth/PBS 1:1, 35 °C, OD 625 nm every 60 min for 20 h; MIC as molar concentration of PEP; mean of at least three independent experiments
Method: (§1) The antibacterial properties of HPMA-PEP constructs were tested against Acinetobacter baumanii (CCM 2355), Escherichia coli (CCM 4517), Staphylococcus epidermidis (CCM 2124), and Staphylococcus aureus (CCM 4516) (Czech Collection of Microorganisms, Brno, Czech Republic) in vitro. A single colony of the test microorganism was transferred into 5 mL of sterile broth (Luria-Bertani medium, Sigma) and cultivated overnight at 37 °C to prepare a bacterial test suspension in a double-concentrated Mueller-Hinton broth at a density equivalent to a 0.5 McFarland standard. Desired weight of lyophilized PEP or polymer-PEP was resuspended in sterile PBS and a concentration series was prepared. The bacterial suspension was then mixed with different concentrations of the PEP or polymer-PEP construct diluted in 1:1 in PBS and cultured at 35 °C. The bacterial growth was measured spectrophotometrically at 625 nm every 60 min for 20 h using an EON microplate spectrophotometer (Agilent Technologies, Santa Clara, CA, USA).
(§2) The MIC was determined as the lowest concentration of PEP or polymer-PEP construct without observable bacterial growth. MIC was calculated as the molar concentration of PEP. […] If the bacteria were absent after 24 h of incubation, it was termed MBC.

[2] = system: Escherichia coli (CCM 4517); format: cell-based; conditions: E. coli (Gram-negative); Mueller-Hinton broth/PBS 1:1, 35 °C, OD 625 nm every 60 min for 20 h; MIC as molar concentration of PEP; mean of at least three independent experiments
Method: as §1, §2

[3] = system: Staphylococcus aureus (CCM 4516); format: cell-based; conditions: S. aureus (Gram-positive); Mueller-Hinton broth/PBS 1:1, 35 °C, OD 625 nm every 60 min for 20 h; MIC as molar concentration of PEP; mean of at least three independent experiments
Method: as §1, §2

[4] = system: Staphylococcus epidermidis (CCM 2124); format: cell-based; conditions: S. epidermidis (Gram-positive); Mueller-Hinton broth/PBS 1:1, 35 °C, OD 625 nm every 60 min for 20 h; MIC as molar concentration of PEP; mean of at least three independent experiments
Method: as §1, §2

E. coli [5] = assay: Fluorescent microscopy of labeled peptide/constructs with bacteria; format: cell-based, Escherichia coli; conditions: labeled sample added at amount corresponding to its MIC, spinning disc confocal, ex 488 nm, em 525 nm
Method: The densities of the fresh overnight bacterial cultures were adjusted to the 0.5 McFarland standard, and 100 µL was placed in a sterile 96-well plate. The plates were incubated at room temperature for 2 h before the amount of fluorescently labeled F-PEP or F-P-PEP construct corresponding to its MIC was added to the appropriate wells. Images were captured immediately using a spinning disc confocal microscope (Andor xD revolution) on the Olympus IX81 platform and analyzed with iQ3 software, the excitation wavelength was 488 nm and the emission wavelength was 525 nm.

E. coli [6] = assay: Transmission electron microscopy (TEM) of treated bacteria; format: cell-based, Escherichia coli; conditions: 2 × MIC, 2.5 h of incubation, negative staining
Method: (§3) Bacteria in the exponential growth phase were mixed with the PEP or polymer-PEP constructs at a concentration equivalent to 2×MIC. After 2.5 h of incubation, 10 µL of the suspension was placed on a copper carbon-coated electron microscopic copper grid (Sigma Aldrich, Saint Louis, MO, USA) and left to adhere for 10 min. Then, the grid was washed twice with dH2O and stained with 0.8% sodium silicotungstate (Agar Scientific, Stansted, UK), pH 7.4, for 40 s. The samples were analyzed using a JEOL JEM-1010 instrument (JEOL Ltd., Tokyo, Japan) with an SIS MegaView III digital camera (Soft Imaging Systems) at acceleration voltage 80 kV and AnalySIS Software 2.0.

S. aureus [7] = assay: as above; format: cell-based, Staphylococcus aureus; conditions: 2×MIC, 2.5 h of incubation, negative staining
Method: as §3

S. aureus [8] = conditions: labeled sample added at amount corresponding to its MIC, spinning disc confocal, ex 488 nm, em 525 nm
Method: The densities of the fresh overnight bacterial cultures were adjusted to the 0.5 McFarland standard, and 100 µL was placed in a sterile 96-well plate. […] Images were captured immediately using a spinning disc confocal microscope (Andor xD revolution) on the Olympus IX81 platform and analyzed with iQ3 software, the excitation wavelength was 488 nm and the emission wavelength was 525 nm.

cathepsin B = cathepsin B (Homo sapiens, UniProt P07858); format: in vitro ADME
Method: The enzymatic activity of cathepsin B was probed immediately before the release measurements as described previously. The enzymolysis was monitored by HPLC and the rate of PEP release was calculated from the area of the corresponding polymer peaks from the fluorescent detector (excitation 280 nm, emission 350 nm of Trp in PEP). The spontaneous hydrolysis and release of PEP were measured by HPLC in two different PBS buffers to mimic the bloodstream, pH 7.4 and pH 5.5, at 37 °C.

CC[C@H](C)[C@H](NC(=O)[C@H](CCCCN)NC(=O)[C@H](CCCCN)NC(=O)[C@H](CC(C)C)NC(=O)[C@H](CC(C)C)NC(=O)[C@H](CCCCN)NC(=O)[C@H](CCSC)NC(=O)[C@H](Cc1c[nH]c2ccccc12)NC(=O)[C@H](CCCCN)NC(=O)CNC(=O)CCCN(C)C(=O)c1ccccc1-c1c2ccc(=N)c(S(=O)(=O)O)c-2oc2c(S(=O)(=O)O)c(N)ccc12)C(=O)N[C@@H](CC(C)C)C(=O)N[C@@H](CCCCN)C(N)=O [F-PEP] (X1-[NMeGABA]GKWMKLLKKILK-NH2)
MIC [1]: 36.5 µM (≈ 75.1 µg/mL)
MIC [2]: 18.2 µM (≈ 37.4 µg/mL)
MIC [3]: 72.9 µM (≈ 150 µg/mL)
MIC [4]: 29.2 µM (≈ 60.1 µg/mL)
Interaction / accumulation on bacterial cells (fluorescence microscopy) (E. coli [5]): accumulation of F-PEP and F-P-PEP on the bacterial cells

p(HPMA-co-Ma-β-Ala-DBCO-azide-PEP) [P-PEP, non-cleavable polymer-PEP construct, control system]
MIC [1]: 9.3 µM
MIC [2]: 74.1 µM
MIC [4]: 14.8 µM
Effect on bacterial cell morphology (TEM) (E. coli [6]): induced cell morphological changes
Effect on bacterial cell morphology (TEM) (S. aureus [7]): induced cell morphological changes, cell wall disruption and leakage of the cytoplasm

p(HPMA-co-Ma-β-Ala-ATTO-488-co-Ma-β-Ala-DBCO-azide-PEP) [F-P-PEP]
MIC [1]: 38.7 µM
MIC [2]: 77.5 µM
MIC [4]: 77.5 µM
Interaction / accumulation on bacterial cells (fluorescence microscopy) (E. coli [5]): accumulation of F-PEP and F-P-PEP on the bacterial cells
Interaction / accumulation on bacterial cells (fluorescence microscopy) (S. aureus [8]): considerably less F-P-PEP accumulated on S. aureus

GKWMKLLKKILK-NH2 [PEP]
MIC [1]: 5 µM
MIC [2]: 5 µM
MIC [3]: 10 µM
MIC [4]: 3.4 µM

p(HPMA-co-Ma-β-Ala-DBCO-ValCit-PEP) [P-ValCit-PEP, enzymatically cleavable polymer-PEP construct, ValCit spacer]
MIC [1]: 16.8 µM
MIC [2]: 134 µM
PEP release in contact with cathepsin B (cathepsin B): not releasing the PEP
